In PubChem BioAssay (NCI) one finds TGI and GI50 data, which are given here for 22 compounds.

Test systems include IGROV1 ovarian; SK-MEL-2 melanoma; HCT-15 colon; MDA-MB-435; SN12C renal; M14 melanoma; UACC-62 melanoma; A549 NSCLC; SF-295 CNS; K-562 leukemia.
What all share (test): NCI-60 cell line screen, 48 h

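The compound was tested at five concentrations on cells cultured in 96-well plates, with a 48-hour exposure period. GI50 = concentration required for 50% inhibition of growth. TGI: concentration producing complete growth inhibition.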

Consider `C=C1C(=O)OC2C1C(OC(=O)/C(C)=C/C)CC1(C)C(=O)CCC(=C)C21` (stereo not given), for which the TGI in the assay with IGROV1 ovarian is 26.6 µM; with SK-MEL-2 melanoma, 24.2 µM; in the assay with HCT-15 colon, 10.3 µM; in the assay on MDA-MB-435, greater than 58.8 µM; in the assay with SN12C renal, 4.09 µM; with M14 melanoma, 23.3 µM. The TGI in the assay with UACC-62 melanoma was 23.5 µM; in the assay on A549 NSCLC, 43.7 µM; in the assay on SF-295 CNS, 35.8 µM.

As to `Oc1cc2cccc[n+]2c2cccc(Cl)c12`, the GI50 in the assay with IGROV1 ovarian is 31.4 µM; in the assay with HCT-15 colon, 49.4 µM; in the assay with MDA-MB-435 it was 17.4 µM; with SN12C renal it was 17.2 µM; in the assay with M14 melanoma, 66.8 µM; with UACC-62 melanoma, 32.6 µM. Further, the GI50 is 95.3 µM in the assay with SF-295 CNS and 25.4 µM in the assay with K-562 leukemia. Also, the TGI came to 40.8 µM in the assay with MDA-MB-435, 45.4 µM in the assay on SN12C renal and 76 µM in the assay on K-562 leukemia.

Consider `[C-]#[O+].[C-]#[O+].[Ir].[O-]c1cccc2cccnc12`, for which the TGI in the assay on IGROV1 ovarian, with SK-MEL-2 melanoma, in the assay with HCT-15 colon, in the assay on SN12C renal, in the assay with UACC-62 melanoma and in the assay on A549 NSCLC was greater than 100 µM throughout. The same compound showed a TGI in the assay on SF-295 CNS greater than 100 µM. Further, the GI50 in the assay on SK-MEL-2 melanoma, in the assay with HCT-15 colon, with SN12C renal, with UACC-62 melanoma, with A549 NSCLC and in the assay on SF-295 CNS was greater than 100 µM each time.

For `CC(C)C(N=Cc1ccccc1O)C(=O)O` (stereo not given), the TGI with IGROV1 ovarian, in the assay with SK-MEL-2 melanoma, with HCT-15 colon, with MDA-MB-435, in the assay on SN12C renal and with M14 melanoma was greater than 100 µM each time. The TGI with UACC-62 melanoma, in the assay on A549 NSCLC, in the assay on SF-295 CNS and in the assay with K-562 leukemia was greater than 100 µM in each case.

As to `Fc1ccc(-c2ccc(-c3nnc(-c4cc(F)c(Cl)cc4Cl)o3)o2)cc1Cl`, the GI50 in the assay with IGROV1 ovarian is 30.1 µM; in the assay on SK-MEL-2 melanoma it was 54.8 µM; in the assay with HCT-15 colon it was 27.6 µM; in the assay on MDA-MB-435 it was 34.6 µM; with SN12C renal it was 33.3 µM; with UACC-62 melanoma it was 17.6 µM. Further, the results for the GI50 with A549 NSCLC, in the assay on SF-295 CNS and in the assay on K-562 leukemia were 37.3 µM, 30.2 µM and 48.5 µM, respectively. Besides, the TGI with IGROV1 ovarian was greater than 100 µM; with SK-MEL-2 melanoma, greater than 100 µM; in the assay with HCT-15 colon it was greater than 100 µM; in the assay on MDA-MB-435, greater than 100 µM; in the assay on SN12C renal, greater than 100 µM; in the assay with UACC-62 melanoma, 51.2 µM. Further, the TGI in the assay with A549 NSCLC, in the assay on SF-295 CNS and with K-562 leukemia was greater than 100 µM throughout.

`O=C(/C=C/c1ccc(O)cc1)NCCc1ccc(O)cc1`: the TGI in the assay on IGROV1 ovarian, with SK-MEL-2 melanoma, with HCT-15 colon, in the assay with MDA-MB-435, in the assay with SN12C renal and in the assay on M14 melanoma was greater than 12.5 µM throughout. Further, the TGI with UACC-62 melanoma, in the assay with A549 NSCLC, with SF-295 CNS and with K-562 leukemia was greater than 12.5 µM each time.

As to `c1ccc2sc(C3(N4CCCCC4)CCCC3)cc2c1`, the TGI was found to be 23.6 µM in the assay with IGROV1 ovarian; 21.6 µM in the assay on HCT-15 colon; 29.4 µM in the assay with MDA-MB-435; 33.1 µM in the assay on SN12C renal; 33.1 µM with M14 melanoma; 29.4 µM in the assay with UACC-62 melanoma. Further, the TGI in the assay on A549 NSCLC worked out at 22.3 µM; with SF-295 CNS, 23.7 µM; in the assay with K-562 leukemia, 23.9 µM.

Regarding `O=S(=O)(c1ccc(I)cc1)N(c1ccccc1)S(=O)(=O)C(F)(F)C(F)(F)C(F)(F)C(F)(F)F`, the TGI with IGROV1 ovarian was greater than 100 µM; with SK-MEL-2 melanoma it was 90.6 µM; in the assay on HCT-15 colon, greater than 100 µM; in the assay with MDA-MB-435, greater than 100 µM; in the assay with SN12C renal, greater than 100 µM; in the assay with M14 melanoma, greater than 100 µM. In addition, the TGI with UACC-62 melanoma was greater than 100 µM; with A549 NSCLC, greater than 100 µM; in the assay with SF-295 CNS it was 71.8 µM; with K-562 leukemia, greater than 100 µM.

As for `C[N+]1(C)CCC(C#N)(c2ccccc2)CC1`, the TGI in the assay with IGROV1 ovarian, with HCT-15 colon, with M14 melanoma, in the assay with A549 NSCLC, with SF-295 CNS and with K-562 leukemia was greater than 100 µM in each case.

For the compound `CC(=O)OCC1OC(O[C@@H]2c3c(O)c4c(c(O)c3C3=C(NN(c5ccc([N+](=O)[O-])cc5[N+](=O)[O-])[Se]3=O)[C@@]2(C)O)C(=O)c2ccccc2C4=O)C(OC(C)=O)C(OC(C)=O)C1OC(C)=O` (stereo not given in full), the TGI in the assay on IGROV1 ovarian was 1.09 µM; in the assay on SK-MEL-2 melanoma it was 0.615 µM; in the assay on HCT-15 colon, 0.873 µM; with MDA-MB-435, 0.332 µM; in the assay with SN12C renal, 0.552 µM; in the assay with M14 melanoma it was 1.6 µM. Besides, the TGI in the assay with UACC-62 melanoma is 0.936 µM; in the assay on A549 NSCLC it was 2.07 µM; in the assay on SF-295 CNS it was 1 µM; in the assay on K-562 leukemia it was 0.431 µM.

Take `O=S(O)c1cc(Cl)cc(Cl)c1O`: the TGI with SK-MEL-2 melanoma, in the assay with SN12C renal, with M14 melanoma, with UACC-62 melanoma and in the assay with K-562 leukemia was greater than 100 µM throughout.

As to `COc1ccc(SC(C)(SC)c2ccccn2)c(OC)n1` (stereo not given), the TGI in the assay with IGROV1 ovarian, in the assay on SK-MEL-2 melanoma, with HCT-15 colon, with MDA-MB-435, in the assay with SN12C renal and with M14 melanoma was greater than 100 µM throughout. Moreover, the TGI with UACC-62 melanoma, in the assay with A549 NSCLC, in the assay with SF-295 CNS and with K-562 leukemia was greater than 100 µM each time.

As to `O=C1/C(=C\c2ccc(-c3ccc(Cl)cc3Cl)o2)SC2N=C(COc3ccc(Cl)cc3)NN12` (stereo not given), the TGI with IGROV1 ovarian, with SK-MEL-2 melanoma, in the assay with HCT-15 colon, with MDA-MB-435, in the assay with SN12C renal and in the assay on M14 melanoma was greater than 100 µM each time. Moreover, the TGI with UACC-62 melanoma, with A549 NSCLC, with SF-295 CNS and in the assay on K-562 leukemia was greater than 100 µM in each case.

Consider `N#C/C=C1\C=CC(O)C(O)C1OC1OC(CO)C(O)C(O)C1O` (stereo not given), for which the TGI in the assay on IGROV1 ovarian, in the assay on SK-MEL-2 melanoma, in the assay with HCT-15 colon, in the assay with MDA-MB-435, with SN12C renal and with M14 melanoma was greater than 100 µM each time. Moreover, the TGI with UACC-62 melanoma, with A549 NSCLC, in the assay with SF-295 CNS and in the assay with K-562 leukemia was greater than 100 µM each time.

Turning to `S=C1N(c2ccc(Cl)cc2)C2=C(N=Nc3ccccc3)C(=Nc3ccccc3S2)N1c1ccccn1`, the TGI in the assay on IGROV1 ovarian was 1.47 µM; in the assay with HCT-15 colon, 23 µM; in the assay on MDA-MB-435 it was 26.7 µM; with SN12C renal it was 25 µM; in the assay with M14 melanoma, 26.6 µM; in the assay on A549 NSCLC, 29.1 µM. The compound further had a TGI in the assay on SF-295 CNS of 32.3 µM.

Consider `CN(C)Cc1ccc(C(=O)Nc2ccc3ncnc(Nc4ccc(Oc5cccc(F)c5)c(Cl)c4)c3c2)cc1`, for which the GI50 with IGROV1 ovarian is 1.12 µM; in the assay with HCT-15 colon, 1.25 µM; in the assay with MDA-MB-435, 1.74 µM; in the assay with SN12C renal, 1.44 µM; with UACC-62 melanoma it was 1.77 µM; in the assay with SF-295 CNS, 1.71 µM. The GI50 in the assay on K-562 leukemia is 1.17 µM. Moreover, the TGI in the assay with IGROV1 ovarian amounted to 2.6 µM; in the assay on HCT-15 colon, 2.62 µM; in the assay with MDA-MB-435 it was 3.25 µM; in the assay with SN12C renal it was 2.81 µM; in the assay on UACC-62 melanoma, 3.23 µM; with SF-295 CNS, 3.11 µM. In the assay with K-562 leukemia, this compound gave a TGI of 2.88 µM.

`O=S(=O)(O)c1c(N=Nc2c(O)ccc3ccccc23)ccc2ccccc12`: the TGI in the assay on IGROV1 ovarian, in the assay with SK-MEL-2 melanoma, in the assay with HCT-15 colon, with MDA-MB-435, in the assay on SN12C renal and with M14 melanoma was greater than 100 µM throughout. Also, the TGI in the assay on UACC-62 melanoma, in the assay with A549 NSCLC, in the assay on SF-295 CNS and in the assay on K-562 leukemia was greater than 100 µM in each case.

For the compound `Nc1nc(SCc2ccccc2)c2ncn(Cc3ccccc3)c2n1`, the TGI in the assay with IGROV1 ovarian, in the assay on SK-MEL-2 melanoma, with HCT-15 colon, in the assay with MDA-MB-435, in the assay on SN12C renal and with M14 melanoma was greater than 100 µM in each case. Moreover, the TGI in the assay with UACC-62 melanoma, with A549 NSCLC, in the assay with SF-295 CNS and in the assay on K-562 leukemia was greater than 100 µM in each case.

Consider `COC(=O)C1=CC[C@@H]2C(C(=O)O)=CO[C@@H](OC3OC(CO)C(O)C(O)C3O)[C@H]12` (stereo not given in full), for which the TGI in the assay with IGROV1 ovarian, in the assay on SK-MEL-2 melanoma, with HCT-15 colon, in the assay with SN12C renal, with UACC-62 melanoma and in the assay on A549 NSCLC was greater than 300 µM each time. In addition, the TGI in the assay with SF-295 CNS is greater than 193 µM; in the assay on K-562 leukemia, greater than 300 µM.

As for `O=C1c2ccccc2-c2ccc(N=[N+]([O-])c3ccc4c(c3)C(=O)c3ccccc3-4)cc21`, the TGI in the assay on IGROV1 ovarian, in the assay with SK-MEL-2 melanoma, in the assay on HCT-15 colon, in the assay with MDA-MB-435, in the assay on SN12C renal and in the assay on M14 melanoma was greater than 100 µM in each case. Moreover, the TGI in the assay on UACC-62 melanoma, in the assay with A549 NSCLC, in the assay with SF-295 CNS and in the assay on K-562 leukemia was greater than 100 µM each time.

Regarding `CC1(C)COC(/C=C/C2=NC(C)(C)CO2)=N1`, the TGI is 50.6 µM with IGROV1 ovarian; 82.9 µM with SK-MEL-2 melanoma; 34.5 µM in the assay with HCT-15 colon; 82.9 µM in the assay with MDA-MB-435; 9.89 µM in the assay on SN12C renal; 31.4 µM with M14 melanoma. Besides, the TGI with UACC-62 melanoma is 31.4 µM; with A549 NSCLC, greater than 100 µM; in the assay on SF-295 CNS, greater than 100 µM; in the assay on K-562 leukemia it was 63.4 µM.

For the compound `S=C(Nc1ccc(Cl)cc1)Nc1ccc(Cl)cc1` (tested in a mixture with another compound), the GI50 is 3.26 µM with IGROV1 ovarian; 2.34 µM in the assay on SK-MEL-2 melanoma; 2.59 µM with HCT-15 colon; 2.45 µM in the assay on MDA-MB-435; 2.49 µM in the assay with SN12C renal; 2.03 µM in the assay on M14 melanoma. For the same compound, the GI50 is 1.75 µM with UACC-62 melanoma, 2.38 µM in the assay on A549 NSCLC, 1.75 µM in the assay with SF-295 CNS and 2.28 µM in the assay with K-562 leukemia. For the same compound, the TGI was greater than 100 µM in the assay on IGROV1 ovarian; 5.04 µM in the assay with SK-MEL-2 melanoma; 11.4 µM with HCT-15 colon; 7.86 µM with MDA-MB-435; 7.32 µM in the assay with SN12C renal; 5.39 µM in the assay with M14 melanoma. The TGI is 4.28 µM with UACC-62 melanoma, greater than 100 µM in the assay on A549 NSCLC, 4.38 µM in the assay with SF-295 CNS and greater than 100 µM in the assay with K-562 leukemia.
